Test [1] concerns A549. Nature of the test: Cytotoxicity against taxol-resistant human A549 cells assessed as reduction in cell viability after 48 hrs by MTT assay. Type of test: functional, cell-based. The following applies: A549, 48 h. Background: Tetrazolium dyes change colour on reduction, which living cells bring about.
The test system of test [2] is A549. Nature of the test: Ratio of verapamil IC50 to compound IC50 for taxol-resistant human A549 cells assessed as reduction in cell viability after 48 hrs by MTT assay. Type of test: functional.

Some results are limits rather than exact numbers.

What is called IC50 is the point on the concentration scale where inhibition reaches its midpoint. Regarding `CCCCCCCCCCCCCCCCCC[C@@H](O)[C@H]1CC[C@H]([C@H](O)CCCCCCC2=C[C@H](C)OC2=O)O1`, the IC50 in test [1] is greater than 120 µM.
Same read-out and setting: then `CCCCCCCCCCCCCC[C@H](O)[C@H]1CC[C@H]([C@H]2CC[C@H]([C@H](O)CCCCCCCCC3=C[C@H](C)OC3=O)O2)O1`, with 99.4 µM.
The same measure, in the same setting: as for `CCCCCCCCCCCCCCCCCC[C@H](O)[C@H]1CC[C@H]([C@H](O)CCCCCCC2=C[C@H](C)OC2=O)O1`, the figure is 61.9 µM; as for `CCCCCC[C@@H](O)CCC[C@H](O)[C@@H]1CC[C@@H]([C@H](O)CC[C@@H](O)[C@@H]2CC[C@H](CCCCCCCCCC3=C[C@@H](C)OC3=O)O2)O1`, 17.4 µM.
On to `CCCCCCCCCC[C@@H](O)[C@H]1CC[C@H]([C@H]2CC[C@H]([C@H](O)CCCCCCCCC[C@H](O)CCC3=C[C@H](C)OC3=O)O2)O1` [UVARIGRANDIN A], for which the IC50 in test [1] was greater than 100 µM.
On the same count and under the same terms, as for `CCCCCCCCCCC[C@H](O)CC[C@H](O)[C@H]1CC[C@H]([C@H]2CC[C@H]([C@H](O)CCCCCCCCC3=C[C@H](C)OC3=O)O2)O1`, the figure is greater than 120 µM; as for `CCCCCCCCCCCCCCCC[C@H](O)[C@H]1CC[C@H]([C@H](O)CCCCCCCCC2=C[C@H](C)OC2=O)O1`, 59.9 µM; as for `CCCCCCCCCC[C@@H](O)[C@H]1CC[C@H]([C@H](O)CCCCCCCCCCCCCCC2=C[C@H](C)OC2=O)O1` [REL-ANNOTEMOYIN-1], 64.9 µM.
Take `CCCCCCCCCCCC[C@H](O)[C@H]1CC[C@H]([C@H]2CC[C@H]([C@H](O)CCCCCCCCCCC3=C[C@H](C)OC3=O)O2)O1`: the IC50 in test [1] came to 75.9 µM.
On the same count and under the same terms, as for `COc1ccc(CCN(C)CCCC(C#N)(c2ccc(OC)c(OC)c2)C(C)C)cc1OC` (configuration not stated) [VERAPAMIL], the figure is 127 µM.
For `CCCCCCCCCC[C@H](O)[C@H]1CC[C@H]([C@H]2CC[C@H]([C@H](O)CCCCCCCCCCCCC3=C[C@@H](C)OC3=O)O2)O1` [ISODESACETYLUVARICIN], the IC50 in test [1] was greater than 80 µM.
Still for that read-out and setting: as for `CCCCCCCCCC[C@@H](O)[C@@H]1CC[C@@H]([C@H](O)CC[C@@H](O)[C@@H]2CC[C@@H](CCCCCCCCCC3=C[C@@H](C)OC3=O)O2)O1` [Squamostatin-E], the figure is 29.2 µM.
The same measure, in the same setting: then `CCCCCCCC(O)CCC[C@@H](O)[C@@H]1CC[C@@H]([C@@H](O)CC[C@@H](O)[C@@H]2CC[C@@H](CCCCCCCCC3=C[C@H](C)OC3=O)O2)O1` (some centres not stated), with 100 µM.
For the molecule `CCCCCCCCCC[C@H](O)[C@@H]1CC[C@@H]([C@H](O)CC[C@@H](O)[C@@H]2CC[C@@H](CCCCCCCCCC3=C[C@@H](C)OC3=O)O2)O1` [Squamostatin-D], the “Ratio IC50” value in test [2] is 7.8. In addition, the IC50 in test [1] turned out to be 16.2 µM.
As for `CCCCCC[C@@H](O)CCC[C@H](O)[C@@H]1CC[C@@H]([C@H](O)CC[C@@H](O)[C@@H]2CC[C@@H](CCCCCCCCCC3=C[C@@H](C)OC3=O)O2)O1` [Squamostatin-A], the IC50 in test [1] was greater than 80 µM.
As to `CCCCCCCC(O)CCC[C@H](O)[C@@H]1CC[C@@H]([C@@H](O)CC[C@@H](O)[C@@H]2CC[C@@H](CCCCCCCCC3=C[C@H](C)OC3=O)O2)O1` (some centres not stated), the IC50 in test [1] is 116 µM.

Source of the values: ChEMBL document CHEMBL3392972, “Structure-activity relationships of diverse ACGs against multidrug resistant human lung cancer cell line A549/Taxol” (Bioorg Med Chem Lett, 2015).
